The source of these data is patent US10391071B2, “Compositions comprising valerian extracts” (Cutech SRL, priority 2015, dated 2019).

One test has as its system human skin subcutis. Kind of test: Normalized total lipids in subcutis of ex-vivo cultured full-thickness human skin. The following applies: for Total lipid content in skin subcutis samples, % ratio of the control group performance (Average): Table 9, abdominal skin, six days of organ culture (five of treatment). It counts as cell-based. An excerpt:
The reported examples from 19 to 23 are intended to show the modulation of adipocyte lipid content exerted by the experimental preparations on human skin subcutis. Full-thickness ex-vivo human skin samples, including the subcutis, were ex-vivo cultured and treated with compounds obtained from valerian extract, i.e. valerenic acid (VA) and pentanoic acid (AP), in order to evaluate their activity on the lipid metabolism.
The responses of the treated tissues, in comparison to the untreated group, were evaluated after 6 days of culture, by isolating the subcutis of each skin sample and then estimating its normalized content in total lipids.
Cylindrical pieces (7 mm in diameter) of full thickness human skin were excised from an abdominal skin sample paying attention to preserve the subcutis. These organ samples were seeded in 24-well plates at a density of 1 sample/well with 500 μl of culture medium, and cultured up to day 6. The samples submitted to experimental treatments received medium supplemented with VA at 0.5, 5 and 50 μM or PA at 0.2 and 2 μM. After the first day of culture, the samples were arranged in experimental groups including 4 samples each one. The control group received modified William E medium, while the samples submitted to experimental treatments received the same medium supplemented with the extracts. The culture medium was renewed every other day. After six days of organ culture (five of treatment), the subcutis of each skin sample was separated from the dermis and its total content of lipids and proteins was quantified. […] As a result, when lipogenesis is stimulated, an increase in the “total lipids/total proteins ratio”, hereinafter defined “normalized total lipids”, is expected, while the contrary occurs in the case of increased lipolysis.
The analytical protocol adopted to detect values of “normalized total lipids” is described below: • each subcutis sample was homogenized in 1 ml of isopropyl alcohol; • the sample was centrifuged at 14,000 G for 5 minutes and then the supernatant (containing the extracted lipids) was collected; • the supernatant was diluted 10 fold with isopropyl alcohol; • the diluted lipid extract was analysed with a Direct Detect IR Spectrometer (Millipore), which provided the total lipid concentration of the supernatant (mg/ml); • the total lipids of the subcutis sample was quantified multiplying the supernatant lipid concentration (indention 4) by the preliminary dilution factor (indention 3) and then by the volume of isopropyl alcohol used for the lipid extraction (indention 1); • the residual pellet obtained from indention 2 was washed with 1 ml of isopropyl alcohol and, after another centrifugation this solvent was withdrawn; • the pellet was dried in a vacuum dry evaporator and then homogenized in 100 ul of proteolytic buffer (20 mM Tris HCI pH 7.5, 150 mM NaCl, 2 mM EDTA, 0.5% Triton X-100, 2 mM DTT, 1% protease inhibitor cocktail); • the extractive mixture was centrifuged at 14,000 G for 10 minutes and the supernatant was collected and analysed with a Direct Detect IR Spectrometer (Millipore), which provided the total protein concentration of the supernatant (mg/ml); • the obtained total protein concentration was multiplied by the extractive volume (indention 7) in order to quantify the total proteins of the subcutis sample; • the total lipids (indention 5) were divided by the total proteins (indention 9) in order to obtain the amount of lipids per mg of proteins relative to the processed subcutis sample.

In test [1] the test system is human sebaceous glands (hSGs). Kind of test: Sebum content in ex-vivo cultured human sebaceous glands (hSGs), lipids normalized to proteins. It counts as cell-based. An excerpt:
The following examples are intended to show the modulation of sebum production exerted by the experimental preparations on human sebaceous glands (hSGs) microdissected and cultivated up to day 6. At the end of the culture time, the sebum is extracted and quantified from each experimental group of hSGs and then normalized by the proteins extracted from the residual hSG material (mg lipids/mg proteins). As a result, the biological activity of the tested compounds is inferred by comparing the lipids/proteins ratio of the treated glands with that of the control group. A detailed methodology is reported in EP14179936.1 (Cutech Srl) The adopted experimental model is based on the cultivation of ex-vivo hSGs at constant concentrations of valerian extracts or purified derivatives. This experimental condition is not reproducible in vivo since both topical and oral administration produce fluctuating concentrations, depending on the frequency and composition of the treatment. […] The control group was cultured in standard medium, whereas a 5 μM Capsaicin treatment was included in the experimental design as positive control. Capsaicin is an active component of chili peppers suitable to inhibit sebogenesis [Tóth et al., 2009, J. Invest. Derm. 129: 329-339]. The effect of the treatment was evaluated by assessing the amounts of normalized lipids obtained from the treated groups, i.e. the quantitive ratio beween sebum lipids and proteins extracted from each group of hSGs (mg of lipids/mg of proteins), with respect to the value obtained from the control group. The results were expressed in percentage values, assuming the normalized lipids obtained from the control group as reference value (100%).

The mark [2] stands for this setting: Table 1, scalp sample donor, 6 days culture, 5 μM.

As for `COc1cc(CNC(=O)CCCC/C=C/C(C)C)ccc1O` [Capsaicin, reference compound], the “Total lipid content in skin subcutis samples, % ratio of the control group performance (Average)” value with human skin subcutis (5 μM) is reported as 73.6%. Further, the “reduction of sebum content of the hSGs in comparison with the control group” value in test [1] (Examples 1 to 4 donor, positive control 5 μM) is on record as 17%. Besides, in test [1] (Examples 5 to 7 donor, positive control 5 μM), the “reduction of hSGs sebum content in comparison with the control group” value is 10%. Further, the “response of sebum production versus control” value in test [1] (Examples 22 to 25, positive control 5 μM) is listed as −17%. In addition, the “Sebum content in hSGs, % ratio of the control group performance (Average)” value (“Sebum content in hSGs, % ratio” below) is recorded as 83.3% in test [1] (setting [2]); 90.2% in test [1] (Table 2, another donor, 5 μM); 37.2% in test [1] (Table 4, another donor, 5 μM); 45.6% in test [1] (Table 5, 5 μM); 59.2% in test [1] (Table 6, same donor, 5 μM); 83.0% in test [1] (Table 7, 5 μM).

Take `CCCCC(=O)O` [PA, pentanoic acid]: the entries for the “Total lipid content in skin subcutis samples, % ratio of the control group performance (Average)” value in the test with human skin subcutis (0.2 μM) and with human skin subcutis (2.0 μM) were 82.6% and 91.6%, respectively. Also, the “reduction in total lipid content of skin subcutis” value in the test on human skin subcutis (concentration not given) stood at 17.8%. The “Sebum content in hSGs, % ratio” value in test [1] (Table 5, 0.2 mM) was 57.3%; in test [1] (Table 5, 2 mM) it was 65.6%; in test [1] (Table 6, same donor, 0.02 mM) it was 62.5%; in test [1] (Table 6, same donor, 0.2 mM), 60.9%; in test [1] (Table 6, same donor, 2.0 mM), 75.4%.

Consider `CC1=C2[C@H](/C=C(\C)C(=O)O)CC[C@@H](C)[C@H]2CC1` [VA, valerenic acid], for which the “response of lipid content in the skin subcutis versus control” value in the test on human skin subcutis (5.0 μM) is given as −44.7%. The “Total lipid content in skin subcutis samples, % ratio of the control group performance (Average)” value in the test with human skin subcutis (0.5 μM) came out at 63.9%; in the test on human skin subcutis (5 μM), 55.3%; with human skin subcutis (50.0 μM), 59.0%. The “reduction of sebum content in the hSGs” value in test [1] (Examples 1 to 4 donor, 0.5 μM) is recorded as 26%. The “concentration range producing sebogenesis inhibition (very effective)” value in test [1] (Examples 5 to 7 donor) was in the range of 0.05 to 5 µM. The “reduction of sebogenesis (change versus control)” value in test [1] (Examples 26 to 27, 0.5 μM) is listed as −29%. The “Sebum content in hSGs, % ratio” value in test [1] (Table 1, scalp sample donor, 6 days culture, 0.05 μM) came out at 98.9%; in test [1] (Table 1, scalp sample donor, 6 days culture, 0.5 μM), 74.2%; in test [1] (setting [2]), 88.0%; in test [1] (Table 1, scalp sample donor, 6 days culture, 50 μM), 88.6%; in test [1] (Table 2, another donor, 0.05 μM), 85.6%; in test [1] (Table 2, another donor, 0.5 μM) it was 61.2%. In addition, the “Sebum content in hSGs, % ratio” value in test [1] (Table 2, another donor, 5 μM) is reported as 88.5%; in test [1] (Table 3, another donor, 0.05 μM), 75.0%; in test [1] (Table 3, another donor, 0.5 μM) it was 89.0%; in test [1] (Table 4, another donor, 0.05 μM), 54.1%; in test [1] (Table 4, another donor, 0.5 μM), 63.9%; in test [1] (Table 6, same donor, 0.05 μM) it was 41.4%. Further, the “Sebum content in hSGs, % ratio” value in test [1] (Table 6, same donor, 0.5 μM) is 50.4%; in test [1] (Table 6, same donor, 5 μM), 70.7%; in test [1] (Table 8, 0.5 μM), 71.4%.
